# According to PMC9029695, “5-Aryl-1,3,4-oxadiazol-2-amines Decorated with Long Alkyl and Their Analogues: Synthesis, Acetyl- and Butyrylcholinesterase Inhibition and Docking Study” (Pharmaceuticals, 2022):
# Experiments:
# [1] = target: T1, AChE (Electrophorus electricus, UniProt O42275); experiment: Reversibility of AChE inhibition (residual enzyme activity over time); assay type: biochemical, electric eel (Electrophorus electricus L.)
# T1 construct: purchased Merck (Prague, Czech Republic)
# Source text: Based on the promising in vitro inhibition of AChE by thiadiazole 3t, we investigated the derivative to distinguish between reversible, pseudo-irreversible and irreversible inhibition on the basis of changes in enzyme activity over time in the presence of the inhibitor. In reversible inhibition, the activity of enzyme goes down immediately, but the inhibitory molecule is bound to the target for a short period of time, after which the inhibitor-enzyme complex dissociates, and enzyme activity is restored. In pseudo-irreversible inhibition, the inhibitor binds covalently to the enzyme, but the bond is broken down more slowly, delaying the return of enzyme activity to its initial state. In the case of irreversible inhibitors, the reaction between the enzyme and the inhibitor is not rapid because there is a time-dependent drop of activity. Irreversible inhibitors decrease enzyme activity gradually. […]
# Three different inhibitor concentrations (1, 10, and 100 µM) were chosen. […] At given times (5, 10, 15, 20, 30, 40, 50, 60, 260, and 1450 min), DTNB and ATCh were added to the sample taken from the reaction mixture, mixed rapidly, and the absorbance was measured to quantify the enzyme activity. Based on knowledge of the enzyme activity in the absence of the inhibitor (i.e., 100% activity), the percentages of residual enzyme activity in presence of inhibitor were calculated. […]
# [2] = target: T1, AChE; experiment: Type of AChE inhibition (Lineweaver–Burk plot); assay type: biochemical, electric eel (Electrophorus electricus L.); settings: ATCh 20–80 µM, inhibitor 10, 25, 35 and 50 µM
# Source text: We also valuated the type of inhibition of 3t using AChE. In general, the reversible inhibitors can be classified as competitive, non-competitive, uncompetitive, or mixed type. The type of inhibition could be distinguished using the Lineweaver–Burk plot and the corresponding comparison of two key kinetic parameters: maximum velocity (Vm) and Michaelis constant (KM) of the inhibited and uninhibited reactions. Based on the changes of these parameters and intercept of the lines in Lineweaver–Burk plot, the type of inhibition is uncovered.
# The inhibition is associated with a change in both KM and Vm and also their ratio is different compared to the uninhibited reaction. In the Lineweaver–Burk plot, the intersection of the lines is in quadrant III but not on axis.
# The procedure was analogous to the determination of IC50. The enzyme activity in the final reaction mixture (2000 µL) was 0.2 U/mL, concentration of ATCh 20–80 µM and concentration of DTNB was 100 µM. For each of the substrate concentrations, four different concentrations of the inhibitor were used (10, 25, 35 and 50 µM). The dependence of absorbance vs. time was observed and the reaction rate was calculated. […] From obtained equations of regression curves in Lineweaver–Burk plot, the values of Michaelis constant (KM) and maximum velocity (Vm) were calculated. […]
# [3] = target: T2, BChE from equine serum (EqBChE) (Equus caballus, UniProt P81908); experiment: Inhibition of BChE, modified Ellman's spectrophotometric method; assay type: biochemical
# T2 construct: butyrylcholinesterase originated from equine serum (EqBChE); purchased Merck (Prague, Czech Republic); host or cells: equine serum
# T2 sequence (P81908 whole entry): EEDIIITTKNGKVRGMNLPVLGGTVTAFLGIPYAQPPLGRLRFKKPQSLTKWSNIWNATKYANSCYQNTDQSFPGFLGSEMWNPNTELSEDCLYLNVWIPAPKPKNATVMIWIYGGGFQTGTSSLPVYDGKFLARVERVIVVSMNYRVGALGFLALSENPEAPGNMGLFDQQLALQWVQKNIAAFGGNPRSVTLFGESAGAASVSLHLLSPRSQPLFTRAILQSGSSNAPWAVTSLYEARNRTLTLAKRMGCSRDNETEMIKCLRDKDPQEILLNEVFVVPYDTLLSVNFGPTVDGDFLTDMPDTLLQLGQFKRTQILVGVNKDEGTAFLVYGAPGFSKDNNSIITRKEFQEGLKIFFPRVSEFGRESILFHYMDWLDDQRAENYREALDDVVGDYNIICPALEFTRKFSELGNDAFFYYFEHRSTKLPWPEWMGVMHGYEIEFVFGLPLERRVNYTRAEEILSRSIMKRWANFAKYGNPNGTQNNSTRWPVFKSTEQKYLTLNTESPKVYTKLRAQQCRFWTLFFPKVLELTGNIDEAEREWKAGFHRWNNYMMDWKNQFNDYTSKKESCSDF
# Source text: (§1) The heterocycles 3 were screened for their ability to interfere with the function of AChE from electric eel (EeAChE) and BChE from equine serum (EqBChE) using Ellman’s method (Table 1). Their activities are expressed as the concentration producing 50% inhibition of enzymatic activity (IC50). In addition, we calculated selectivity indexes (SI) that quantify the selectivity for AChE as more inhibited cholinesterase. SI is the ratio of IC50 for BChE/IC50 for AChE.
# (§2) Enzyme inhibition activity of 3 quantified as IC50 values was determined spectrophotometrically using modified Ellman’s method. […] The enzyme activity is measured indirectly by determination of 5-mercapto-2-nitrobenzoic acid ion formed after reaction of the thiol reagent 5,5′-disulfanediyl-bis(2-nitrobenzoic acid) (DTNB) and thiocholine, a product of acetylthiocholine (ATCh) and butyrylthiocholine (BTCh) as substrates for hydrolysis by AChE and BChE, respectively.
# (§3) The enzyme activity in final reaction mixture (2000 µL) was 0.2 U/mL, concentration of ATCh (or BTCh) 40 µM and concentration of DTNB 100 µM for all reactions. The compounds 3 were dissolved in DMSO and then diluted in demineralized water (conductivity 3 μS, equipment supplier BKG Water Treatment, Hradec Králové, Czech Republic) to the concentration of 1000 µM. […] The final concentration of DMSO was 0.2%. All experiments were carried in triplicates. The average values of reaction rate (v0-uninhibited reaction, vi-inhibited reaction) were used for construction of the dependence v0/vi vs. concentration of inhibitor. From obtained equation of regression curve, IC50 values were calculated.
# (§4) Acetylcholinesterase was used from electric eel (Electrophorus electricus L.; EeAChE) and butyrylcholinesterase originated from equine serum (EqBChE).
# [4] = target: T3, AChE from electric eel (EeAChE) (Electrophorus electricus, UniProt O42275); experiment: Inhibition of AChE, modified Ellman's spectrophotometric method; assay type: biochemical, electric eel (Electrophorus electricus L.)
# T3 construct: purchased Merck (Prague, Czech Republic)
# T3 sequence (O42275 24-633): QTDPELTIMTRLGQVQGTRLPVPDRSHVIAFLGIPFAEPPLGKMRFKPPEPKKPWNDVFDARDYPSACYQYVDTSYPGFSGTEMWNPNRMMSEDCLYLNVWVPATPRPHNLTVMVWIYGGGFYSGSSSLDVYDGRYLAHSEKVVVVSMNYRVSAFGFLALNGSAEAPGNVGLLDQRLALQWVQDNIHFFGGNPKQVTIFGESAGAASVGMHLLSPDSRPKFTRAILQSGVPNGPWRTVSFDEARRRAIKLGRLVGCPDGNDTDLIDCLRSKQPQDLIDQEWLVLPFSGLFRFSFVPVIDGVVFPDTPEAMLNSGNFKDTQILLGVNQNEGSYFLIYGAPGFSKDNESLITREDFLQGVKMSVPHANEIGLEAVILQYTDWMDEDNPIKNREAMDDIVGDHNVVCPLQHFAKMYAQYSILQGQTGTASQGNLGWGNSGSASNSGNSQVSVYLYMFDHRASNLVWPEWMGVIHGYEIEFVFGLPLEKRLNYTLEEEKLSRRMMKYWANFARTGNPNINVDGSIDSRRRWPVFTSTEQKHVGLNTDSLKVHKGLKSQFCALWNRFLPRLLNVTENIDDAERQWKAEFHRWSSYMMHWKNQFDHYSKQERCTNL
# Source text: as §1, §2, §3, §4
# T1 sequence (O42275 24-633): as above
smiles,measurement,setting,value
"CCCCCCCCCCCCNc1nnc(-c2ccncc2)s1 [3t, N-Dodecyl-5-(pyridin-4-yl)-1,3,4-thiadiazol-2-amine]",reversibility of AChE inhibition,"[1]; 1, 10 and 100 µM, residual activity followed 5–1450 min",reversible AChE inhibitor
same,time at which almost maximum inhibition is reached,[1]; two lower concentrations (1 and 10 µM),5 min
same,type of inhibition,[2],mixed type of inhibition
same,"fold boost of BChE inhibitory potency, switch of oxygen to sulfur",[3]; 3l vs. 3t,4.2 ×
same,IC50,"[3]; EqBChE, Ellman's method, mean ± SD, n = three independent experiments",53.1 ± 3.68 µM
same,IC50,"[4]; EeAChE, Ellman's method, mean ± SD, n = three independent experiments",12.78 ± 0.03 µM
same,fold higher in vitro activity (IC50) against AChE than rivastigmine,[4]; compared with rivastigmine,4.4 ×
same,"BChE/AChE Ratio (selectivity index, IC50 for BChE/IC50 for AChE)",[4]; selectivity for AChE,4.2
